Source: US20240424103A1, “ANTICANCER AGENT, PRODRUG OF ANTICANCER AGENT, METHOD FOR KILLING CANCER CELL IN VITRO, CANCER […], AND CANCER TREATMENT DEVICE” (NATIONAL INSTITUTE OF ADVANCED INDUSTRIAL SCIENCE AND …, priority 2021, published 2024)
Several values for one entry are separate records, joined by “and”; a condition that tells them apart may be missing. Identical values can stand only once.

Key:
RGK-KO cells = assay: Proton beam irradiation of RGK-KO cells cultured on ^15N_5-ALA-containing culture medium, surviving fraction by fluorescent protein image and DAPI staining; format: cell-based, rat; details: ^15N_5-ALA in medium 24 hours before irradiation, charge amount 4.0 nC, 1.3 MeV
Source text: The RGK-KO cells and RGM-GFP cells cultured on a culture medium containing ^15N_5-ALA and the RGK-KO cells and RGM-GFP cells cultured on a culture medium not containing ^15N_5-ALA were in each instance held sealed in a vacuum along with the culture medium and were irradiated with a proton beam at a prescribed ion charge amount. With regard to the proton beam energy, considering the attenuation of the proton beam energy by the Torelina film and the culture solution sealed in the vacuum, the sample was irradiated at 1.3 MeV to match the 1.21 MeV resonance energy.
The upper sections show images of RGM-GFP cells made to metabolize a fluorescent protein by genetic recombination; the lower sections each show photographs in which the dead cells are identified by the DAPI staining method, which stains the DNA in the nucleus of dead cells. […]
The photographs in FIG. 20 show the case of a proton beam irradiation amount of charge of 4.0 nC for both cells. Genes for the metabolism of fluorescent protein are also incorporated in the RGK-KO cells, and the cells present a red color when observed with a fluorescence microscope. […]

[1] = system: rat gastric mucosal-derived cancer cells (RGK-KO) versus rat gastric mucosal-derived cells (RGM-GFP); assay: Cellular intake of ^15N_5-ALA by cancer cells and normal cells, quantitated by 4.43 MeV gamma rays from the ^15N resonance nuclear reaction; format: cell-based; details: 24 hours after the addition of ^15N_5-ALA; 1 mmol/L in culture medium; RGK-KO vs RGM-GFP
Procedure: Rat gastric mucosal-derived cells (RGM-GFP) were prepared as normal cells and rat gastric mucosal-derived cancer cells (RGK-KO) were prepared as cancer cells, and the difference in cellular intake of ^15N_5-ALA between the RGM-GFP cells and RGK-KO cells was confirmed as follows. The rat gastric mucosal-derived cells and rat gastric mucosal-derived cancer cells are both derived from the rat and are widely used in research on anticancer agents because they have the same gene sequence (refer to Non-Patent Documents 6 and 7).
The RGM-GFP cells and RGK-KO cells were cultured for 3 or 4 days on a culture solution adapted to each and were grown to 80% confluence; this was followed by the addition of ^15N_5-ALA and the amount of ^15N intake per cell with elapsed time was measured. […] The cells, which had grown with attachment to the bottom of the Petri dish, were detached from the Petri dish by the addition of trypsin, and the concentration of the liberated cells was measured.
The concentration was adjusted, and 10^5 cells/2 μL was dripped onto a crystalline silicon substrate and drying was carried out. […] The 4.43 MeV gamma radiation emitted by this resonance nuclear reaction with ^15N was measured using a Bi4Ge3O12 (BGO) detector. […]
The specific procedure for quantitating the ^15N_5-ALA intake by the RGM-GFP cells and RGK-KO cells was as follows. […]

[15NH2]CC(=O)CCC(=O)O [^15N_5-ALA, 5-aminolevulinic acid in which the nitrogen is nitrogen-15]
surviving fraction immediately after (within three hours) proton beam irradiation (RGK-KO cells): 73.5% and 85.5%
intake of ^15N_5-ALA by cancer cells relative to the intake by the normal cells [1]: at least 5 times
